Experimental data reported in patent publication US20080170990A1, “Methods for Myocardial Imaging in Patients Having a History of Pulmonary Disease” (CV THERAPEUTICS, INC., priority 2006, published 2008).

Experiments:
Type in all cases: in vivo, human
[1] = tested on: patients undergoing a clinically indicated coronary catheterization; test: Dose-ranging study of coronary flow velocity, heart rate and blood pressure after IV bolus (Example 2)
Method: (§1) The study included patients undergoing a clinically indicated coronary catheterization with no more than a 70% stenosis in any coronary artery and no more than a 50% stenosis of the study vessel had CBFv determined by Doppler flow wire. Study subject were selected after measuring baseline and peak CBFv after an intracoronary (IC) injection of 18 μg of Ado. 36 subjects were identified as meeting the study criteria of having a peak to baseline CBFv ration of ≧2.5 in response to Adenosine,
Regadenoson was administered to the study subjects by IV bolus in less than 10 seconds in amounts ranging from 10 μg to 500 μg. Regadenoson is selective for the A2A adenosine receptor.
The effectiveness of both compounds was measured by monitoring coronary flow velocity. Other coronary parameters that were monitored included heart rate and blood pressure. These parameters were measured in order to evaluate the time to peak dose response, the magnitude of the dose response and the duration of the dose response. Adverse events were also monitored. Coronary blood flow velocity was measured at the LAD or LCx vessel. The velocity measurements were taken by following standard heart catheterization techniques and inserting a 0.014 inch Doppler-tipped Flowire into the LAD or LCx vessel and thereafter monitoring blood flow velocity. In addition, hemodynamic and electrocardiographic measurements were recorded continuously.
Overall, 36 human subjects (n=36) were evaluated. Of the 36, 18 were female and 18 were male. Their mean age was 53.4 and they ranged from 24-72 years in age. Of the 36 subjects evaluated, the LAD vessel of 31 subjects was monitored, and the LCx vessel of 5 subjects was monitored. The following doses (μg) of Regadenoson were given to the subjects in a single iv bolus: 10 (n=4); 30 (n=6); 100 (n=4); 300 (n=7); 400 (n=9); 500 (n=6).

[2] = tested on: AMP-sensitive subjects with mild or moderate asthma; test: Double-blind placebo-controlled cross-over study of pulmonary function in AMP-sensitive asthma (Examples 9, 11)
Method: The primary objective was to compare the incidence of bronchoconstrictive reactions, defined as reduction from baseline in FEV1 of >15% within 2 hours following an intravenous (iv) bolus of 400 micrograms of Regadenoson or matching placebo.
Men or women ≧18 years of age with a diagnosis of mild or moderate asthma as documented by clinical history and pulmonary function test were considered for inclusion. The target was to enrolled 48 evaluable subjects: 24 mild and 24 moderate asthma subjects. […] Patients were not permitted short-acting bronchodilators for >6 hours and long-acting bronchodilators and methylxanthines for >24 hours prior to AMP, Regadenoson, or placebo.
AMP (adenosine 5′-monophosphate sodium salt) was used as an indirect bronchoconstrictor stimulus to select a group of susceptible subjects with adenosine-mediated bronchial hyperreactivity. A standard clinical protocol utilized by the investigative site for the inhalation of AMP for the purpose of provoking a bronchoconstrictor response in the airways was adopted for screening of all subjects. On arrival in the unit, subjects were required to rest for 15 minutes before assessment of lung function at baseline, measured as the best of 3 technically acceptable recordings of FEV1 taken at 1-minute intervals. Subject inhaled a series of five breaths of saline as control, followed by a breath of each increasing concentration of AMP at 3-minute intervals. Two measurements of FEV1 were to be made 90 and 150 seconds after each saline inhalation. The highest FEV1 value was to be recorded. Unless a fall in FEV1 of >10% from the baseline value was observed, subjects then inhaled increasing doubling concentrations of AMP (starting at 0.39 mg/mL) until a ≧20% decrease of FEV1 from the post-saline value was recorded. FEV1 was to be recorded at 90 and 150 seconds after each concentration was administered.
Subjects received 400 μg Regadenoson or placebo administered as an intravenous (iv) bolus in a double-blind cross-over design. Repeated measurements of FEV1 as an assessment of bronchoconstriction were performed before and for up to 2 hours after study drug administration.
Two similar randomized, double-blind, placebo (PLC)-controlled crossover trials were conducted, one in asthmatics with a positive adenosine monophosphate (AMP) challenge (a validated marker of airway inflammation) and one in patients with moderate or several chronic obstructive pulmonary disease (COPD). In both studies, short-acting bronchodilators were held prior to and for the 120 minute time frame study drug treatment during which spirometry was repeatedly assessed.

[3] = tested on: patients undergoing a clinically indicated coronary catheterization; test: Coronary blood flow velocity (CBFv) by Doppler flow wire after IV bolus, open label study (Example 1)
Method: The purpose of this open label study was to determine the magnitude and duration of effect of Regadenoson (10-500 μg) on CBFv in humans.
as §1, with “Patients” for “The study included patients”, “subjects” for “subject”, “Twenty-three patients, who” for “36 subjects”, “Adenosine, received a rapid (≦10 sec) peripheral IV bolus of Regadenoson; Doppler signals were stable and interpretable over the time-course of the increase in CBFv in 17 patients.” for “Adenosine,”

[4] = 400 μg IV bolus, about 1 minute after dosing

CNC(=O)c1cnn(-c2nc(N)c3ncn([C@@H]4O[C@H](CO)[C@@H](O)[C@H]4O)c3n2)c1 [Regadenoson, (1-{9-[(4S,2R,3R,5R)-3,4-dihydroxy-5-(hydroxymethyl)oxolan-2-yl]-6-aminopurin-2-yl}pyrazol-4-yl)-N-methylcarboxamide]
maximum decrease in diastolic BP [1, 4]: 10±5 mmHg
maximum decrease in systolic BP [1, 4]: 20±8 mmHg
maximum increase in heart rate [1, 4]: 18±8 bpm
tolerability ([1]; 10-500 μg IV bolus): generally well tolerated
amount at which plateau peak flow velocity is reached ([1]; IV bolus): less than 100 μg
lowest amount that increases peak flow velocity ([1]; IV bolus): 10 µg
time to peak flow ([1]; all doses (10-500 μg IV bolus)): about 30 seconds
peak effects compared with adenosine ([1]; doses above about 100 μg): equivalent to 18 μg ic adenosine
incidence of chest discomfort ([2]; 400 μg iv bolus): 21%
incidence of dizziness ([2]; 400 μg iv bolus): 53%
incidence of dyspnea ([2]; 400 μg iv bolus): 34%
incidence of flushing ([2]; 400 μg iv bolus): 32%
incidence of headache ([2]; 400 μg iv bolus): 45%
incidence of nausea ([2]; 400 μg iv bolus): 19%
incidence of paraesthesia ([2]; 400 μg iv bolus): 19%
incidence of tachycardia ([2]; 400 μg iv bolus): 66%
time for HR to return to within 5 bpm of baseline ([2]; 400 μg iv bolus): ≤ 60 min
maximum increase in HR ([2]; 400 μg iv bolus, compared with placebo): +10.4 bpm
incidence of adverse events ([2]; 400 μg iv bolus, placebo 8%): 98%
incidence of dyspnea following REG ([2]; asthma study): 34%
Number of patients with FEV1 decline by >20% over 120 min ([2]; asthma study N=48): 1 REG, 0 PLC
Number of patients with FEV1 decline by >30% over 120 min ([2]; asthma study N=48): 1 REG, 0 PLC
Number of patients with use of acute oxygen or short-acting bronchodilators ([2]; asthma study N=48): 0 REG, 0 PLC
mean FEV1, all post-bolus time points combined ([2]; asthma study N=48, p = 0.17 vs PLC): 3.33 (0.9)L REG
Number of patients with FEV1 decline by >15% over 120 min ([2]; asthma study N=48, p = 0.99): 2 REG, 2 PLC
subjects with bronchoconstriction (FEV1 reduction >15% within 2 hours) ([2]; mild asthma (n=24), 400 μg iv bolus): None
number of subjects having bronchoconstriction (FEV1 reduction >15% within 2 hours) ([2]; moderate asthma (n=24), 400 μg iv bolus): 2
maximal decrease in systolic BP ([3]; 500 μg IV bolus): 8.7±7.6
maximal increase in HR ([3]; 500 μg IV bolus): 18.7±4.0
adverse events (AEs) ([3]; 3 patients receiving the 500 μg dose): No AEs
adverse events (AEs) ([3]; 10-500 μg IV bolus, nausea, flushing, headache, mild and self-limited): infrequent
peak to baseline CBFv ratio ([3]; Regadenoson 100, 300 and 500 μg IV bolus, mean ±SD): 3.2±0.6
